Measurements as given in patent US20250221977A1, “NOVEL BENZOTHIOPHENE DERIVATIVE AND USE THEREOF AS BET INHIBITOR” (BENOBIO CO., LTD., priority 2022, published 2025).

Tested on: HPAF, a human pancreatic cancer cell line
Assay: In vitro anticancer efficacy test on human pancreatic cancer cell line (CCK cell viability assay)
Type: cell-based
Conditions: for IC50: HPAF cells, 96 hours, CCK assay
Method: HPAF, a human pancreatic cancer cell line, was dispensed in a 96-well plate and incubated in a 37° C., 5% CO2 incubator for 24 hours. Thereafter, 10 μl of Examples and Comparative Examples were treated to each well at different concentrations (1 nM, 0.01 μM, 0.1 μM, 1 μM, 10 μM, 100 μM) and incubated for 96 hours. Each well was treated with a reagent using a CCK assay kit (Dong-In LS, D Plus CCK cell viability assay kit), and reacted in a 37° C., 5% CO2 incubator for 30 minutes to 1 hour, and then the absorbance was measured at a wavelength of 450 nm using a microplate reader (SpectraMax i3x, USA). The IC50 value was confirmed using the GraphPad Prism 5 (GraphPad Software, Inc., San Diego, USA) program from the results obtained at this time.

IC50 (Homo sapiens, Pancreatic cancer cell)	IC50 value for HPAF, times lower than Comparative Example 1 (versus JQ1)	Structure (SMILES)	IC50
130 nM	about 17.69 times	CNC(=O)CCN(Cc1ccc(C(F)F)cc1)C(=O)c1cc2c(OC)ccc(-c3ccc(=O)n(C)c3)c2s1 [BBC1115, N-[[4-(difluoromethyl)phenyl]methyl]-4-methoxy-N-[3-(methylamino)-3-oxo-propyl]-7-(1-methyl-6-oxo-3-pyridyl)benzothiophene-2-carboxamide]	
		Cc1sc2c(c1C)C(c1ccc(Cl)cc1)=N[C@@H](CC(=O)OC(C)(C)C)c1nnc(C)n1-2 [JQ1, reference compound]	2300 nM
